Several values for one entry are separate records, joined by “and”; a condition that tells them apart may be missing. Equal values may be shown once. Where no end group is shown, it is not given here.
Tests used:
[1] = test system: neuromuscular junctions in orbicularis oculi muscle; settings: rabbit, in vivo
[2] = test system: neuromuscular junctions in rabbit extraocular muscle; settings: in vivo; cited from earlier work
neuromuscular junction = settings: in vivo; cited from earlier work
superior rectus muscle = settings: rabbit, in vivo

botulinum toxin A
combined total muscle neuromuscular junction density, orbicularis oculi muscle [1]: 5.9±0.43 /mm^2 | increase of combined total muscle neuromuscular junction density [1]: ~3 fold | neuromuscular junction density, preseptal region [1]: 4.4±01 /mm^2 and 2.9±0.4 /mm^2 and 5.23±0.7 /mm^2 | neuromuscular junction density, pretarsal region [1]: 4.0±0.21 /mm^2 and 5.7±0.8 /mm^2 | preseptal neuromuscular junction density relative to control [1]: between about two and three times greater than control | change in number of neuromuscular junctions in the treated area [2]: doubling of neuromuscular junctions | return of normal neuromuscular junction activity (neuromuscular junction): 20% | muscle force in response to electrical stimulation (superior rectus muscle): variable response, with some showing force equal to the saline-treated control muscles

corticotropin releasing factor (SEEPPISLDLTFHLLREVLEMARAEQLAQQAHSNRKLMEII; ends and bridges not checked; UniProt P06850 154-194, looked up) [CRF]
neuromuscular junction density compared to saline control (in words) [1]: not significantly different from the density in the control orbicularis oculi muscles | neuromuscular junction density, orbicularis oculi muscle [1]: 2.39±0.23 /mm^2
